Several values for one entry are separate records, joined by “and”; a condition that tells them apart may be missing. Equal entries are not always repeated.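 How tested: cells in 96-well plates exposed to compound for 48 hours at five concentrations. The concentration for 50% growth inhibition is given as GI50. TGI marks complete inhibition of growth.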
Key:
Assay in all cases: inhibition of tumour cell growth, NCI panel, 48 h
786-0 renal = tested on: 786-0 renal
A498 renal = tested on: A498 renal
A549 NSCLC = tested on: A549 NSCLC
BT-549 breast = tested on: BT-549 breast
HT29 colon = tested on: HT29 colon
MALME-3M melanoma = tested on: MALME-3M melanoma
MDA-MB-231 breast = tested on: MDA-MB-231 breast
OVCAR-5 ovarian = tested on: OVCAR-5 ovarian
SF-268 CNS = tested on: SF-268 CNS
SK-MEL-28 melanoma = tested on: SK-MEL-28 melanoma
SNB-19 CNS = tested on: SNB-19 CNS

Row | SMILES | TGI (786-0 renal) | TGI (A498 renal) | TGI (A549 NSCLC) | TGI (BT-549 breast) | TGI (HT29 colon) | TGI (MALME-3M melanoma) | TGI (MDA-MB-231 breast) | TGI (OVCAR-5 ovarian) | TGI (SF-268 CNS) | TGI (SK-MEL-28 melanoma) | TGI (SNB-19 CNS) | GI50 (HT29 colon) | GI50 (MDA-MB-231 breast)
1 | COc1ccc2ccccc2c1/C=C/C(=O)c1ccccc1 | 11.9 µM | 10.9 µM | 10.4 µM | 14.7 µM | 12.4 µM | 26.3 µM | 7.31 µM | 22 µM | 17.9 µM | 17.9 µM | 12.4 µM | – | –
2 | CC(=O)OC(/C=C/c1ccccc1)=C(OC(C)C)/C1=C(\c2ccccc2)SCCCSC1=O | > 100 µM | > 100 µM | > 100 µM | > 100 µM | > 100 µM | > 100 µM | > 100 µM | > 100 µM | > 100 µM | > 100 µM | > 100 µM | – | –
3 | CC(C)(C)OC(=O)NC(Cc1ccc(OCc2ccccc2)cn1)C(=O)N1CCCCC1 (centres undefined) | > 100 µM | > 100 µM | > 100 µM | 60.7 µM | > 100 µM | > 100 µM | > 100 µM | > 100 µM | > 100 µM | > 100 µM | > 100 µM | – | –
4 | CCOC(=O)N/N=C(/N)c1cccc([N+](=O)[O-])c1 | > 100 µM | > 100 µM | > 100 µM | > 100 µM | > 100 µM | > 100 µM | > 100 µM | > 100 µM | > 100 µM | > 100 µM | > 100 µM | – | –
5 | O=c1cc(-c2ccc(F)cc2)[nH]c2ncc(Cl)cc12 | > 100 µM | 53.6 µM | > 100 µM | > 100 µM | > 100 µM | > 100 µM | > 100 µM | > 100 µM | > 100 µM | > 100 µM | > 100 µM | – | –
6 | Nc1cc2[nH]c(=O)c(=O)[nH]c2cc1N | > 100 µM | > 100 µM | > 100 µM | > 100 µM | > 100 µM | > 100 µM | > 100 µM | > 100 µM | > 100 µM | > 100 µM | > 100 µM | – | –
7 | CCOc1cn(C2CC(O)C(CO)O2)c(=O)[nH]c1=O (centres undefined) | > 100 µM | > 100 µM | > 100 µM | > 100 µM | > 100 µM | > 100 µM | > 100 µM | > 100 µM | > 100 µM | > 100 µM | > 100 µM | – | –
8 | O=C1CSC(c2cccc(Oc3ccccc3)c2)N1c1ccc(Cl)cc1 (centres undefined) | > 100 µM | 47.6 µM | > 100 µM | > 100 µM | > 100 µM | 56.7 µM | > 100 µM | > 100 µM | > 100 µM | > 100 µM | > 100 µM | – | –
9 | O=Cc1c(C(=O)O)[nH]c(=O)[nH]c1=O | > 100 µM | > 100 µM | > 100 µM | > 100 µM | > 100 µM | > 100 µM | > 100 µM | > 100 µM | > 100 µM | > 100 µM | > 100 µM | – | –
10 | CC1=NNC(N)=N/C1=C\C(Sc1ccc(Cl)cc1)c1ccc([N+](=O)[O-])cc1 (centres undefined) | > 100 µM | > 100 µM | > 100 µM | > 100 µM | > 100 µM | > 100 µM | > 100 µM | > 100 µM | > 100 µM | > 100 µM | > 100 µM | – | –
11 | Cc1cccc(N=NC(=O)NNc2cccc(C)c2C)c1C | 86 µM | 92.6 µM | > 100 µM | > 100 µM | > 100 µM | 73.3 µM | > 100 µM | > 100 µM | > 100 µM | > 100 µM | > 100 µM | – | –
12 | O=C(N/N=C\c1cccc2c([N+](=O)[O-])cccc12)Nc1ccccc1 | 35.1 µM | 33.4 µM | 28.3 µM | 29.3 µM | 34.7 µM | 38 µM | 49.4 µM | 30.5 µM | 73 µM | 31.9 µM | 36.5 µM | – | –
13 | Oc1c(CN2CCOCC2)ccc2cccnc12 | > 10 µM | > 10 µM | > 10 µM | 8.26 µM | > 10 µM | > 10 µM | > 10 µM | > 10 µM | > 10 µM | > 10 µM | > 10 µM | – | –
14 | CSc1ccc2c(cc1=O)[C@@H](NC(=O)c1ccc(N)cc1)CCc1cc(O)c(O)c(O)c1-2 | 27.6 µM and 41.1 µM | > 100 µM | 49.7 µM and 64.9 µM | 38.2 µM and 52.3 µM | 30.5 µM and 9.94 µM | > 100 µM | > 75 µM and 79.6 µM | 66.3 µM and > 100 µM | 47.8 µM and > 100 µM | > 100 µM | 61 µM and > 100 µM | 13.3 µM and 2.57 µM | 47.2 µM and 19.9 µM
15 | O=C1C=C(C2=CC(=O)C(=O)c3ccccc32)c2ccccc2C1=O | > 100 µM | > 100 µM | > 100 µM | > 100 µM | > 100 µM | > 100 µM | 53.3 µM | 44.2 µM | 48.3 µM | > 100 µM | 53.2 µM | – | –
16 | COCN(CCC1=CCCCC1)C(=O)OC | > 100 µM | > 100 µM | > 100 µM | > 100 µM | > 100 µM | > 100 µM | > 100 µM | > 100 µM | > 100 µM | > 100 µM | > 100 µM | – | –
17 | COC[C@@H](C[C@H]1O[C@@](O)([C@H](O)[C@@H]2C[C@H](OC)[C@@H](O)CC/C=C(C)/C=C/[C@@H](O[C@@H]3O[C@@H](C)[C@H](OC)[C@@H](O)[C@@H]3O)[C@H](C)/C=C(C)/C=C(C)/C=C(\C)C(=O)O2)[C@H](C)[C@@H](O)[C@H]1C)O[C@H]1C[C@](C)(O)[C@@H](O[C@H]2C[C@@H](OC)[C@H](O)[C@@H](C)O2)C(C)O1 (some centres undefined) | > 100 µM | > 100 µM | > 100 µM | > 100 µM | > 100 µM | > 55.5 µM | > 100 µM | > 100 µM | > 100 µM | > 100 µM | > 100 µM | – | –
